In patent US20150241410A1, “INHIBITORS OF CENTRAL NERVOUS SYSTEM VASOACTIVE INHIBITORY PEPTIDE RECEPTOR 2” (The Trustees Of Columbia University In The City Of New York, priority 2012, published 2015):

How the values were obtained:
VIPR2 = target: T1, VIPR2 (Homo sapiens, UniProt P41587); test: BRET-based VIPR2 activation assay (CAMYEL cAMP sensor, CHO cells, VIP background); format: cell-based; conditions: compared with Compound 1 or other compounds (FIG. 1C, FIG. 5B)
T1 construct: expressed in transfected cells
T1 sequence (P41587 24-438): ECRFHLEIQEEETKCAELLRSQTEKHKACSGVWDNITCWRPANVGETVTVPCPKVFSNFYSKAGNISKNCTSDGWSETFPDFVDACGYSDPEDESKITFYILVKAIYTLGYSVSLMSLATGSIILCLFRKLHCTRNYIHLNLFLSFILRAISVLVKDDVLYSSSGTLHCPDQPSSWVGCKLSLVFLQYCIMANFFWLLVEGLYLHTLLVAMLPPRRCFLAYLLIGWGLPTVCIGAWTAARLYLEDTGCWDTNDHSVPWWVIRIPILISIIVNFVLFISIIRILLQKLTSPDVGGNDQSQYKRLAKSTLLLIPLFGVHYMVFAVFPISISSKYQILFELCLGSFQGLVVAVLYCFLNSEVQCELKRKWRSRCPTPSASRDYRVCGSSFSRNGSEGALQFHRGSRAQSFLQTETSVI
Experimental: FIG. 5A-B. Results of BRET-based VIPR2 activation assays in cells expressing both the VIPR2 receptor and CAMYEL (see FIG. 1A for schematic). a) Inhibitory dose-response curves on treatment of CHO cells with increasing concentrations of a batch of antagonists against a background of VIP activation (VIP=5 nM).
In such a system, a detector cell is used which expresses both the VIPR2 receptor and “CAMYEL,” a YFP-Epac-RLuc8 BRET sensor construct. This construct includes Epac1, a guanine nucleotide exchange factor activated by direct binding of cAMP, fused with an enhanced YFP and Renilla luciferase 8 (Rluc8) allowing BRET upon cAMP-induced conformational changes (Jiang et al., 2007, J Biol Chem. 282:10576-10584). In response to elevated cAMP levels, there is a conformational change in Epac and therefore a change in the proximity of the fused chromophores, Rluc8 and YFP, resulting in measurable energy transfer. Coexpression of this BRET construct with VIPR2. optionally tagged at the N-terminus with a signal peptide and FLAG epitope (SF-VIPR2), for example in HEK293 cells, allows for detection of a VIPR2-specific response to cAMP. BRET readout may be calculated by quantifying the ratio of the light emitted by the acceptor, YFP (λ=525 nm), over the emission from the donor, RLuc8 (λ=485 nm). The proximity of the donor and acceptor, and therefore the BRET ratio, decreases in the presence of cAMP. In non-limiting specific embodiments, a stable cell line may be generated for this assay using the Flp-In T-Rex system in HEK293 cells. This system allows site-specific single copy integration of the gene of interest and control of expression levels using the Tet-repressor site making receptor expression tetracycline-inducible. For example, a CAMYEL and VIPR2 expressing line may be induced with 0.01 μg/ml tetracycline, then, 24 hours later cells may be collected and distributed into 96-well plates. After treatment with candidate inhibitor compound, for example at 5, 1 and 0.5 μM concentrations, cells may be incubated with the light emitting luciferin, coelenterazine H, for 5 min and incubated for 5 min with VIP at increasing concentrations, for example ranging from 100 pM to 10 μM. The fluorescence and luminescence may then be quantified, for example using a PHERAstar (BMG) plate reader. […] Alternatively, analogous experiments may be performed using human cells harvested from a patient having a VIPR2 copy number variation, for example (but not by way of limitation) pluripotent stem cells prepared from such a patient and then transfected with a CAMYEL construct.
A series of compounds were prepared using a synthetic method analogous to that set forth in Scheme 1, above, and then tested for their ability to inhibit VIP-induced cAMP elevation and β-arrestin recruitment, as described herein (Discoverx Corporation, Fremont, Calif., US). Compound activities were also tested in a BRET-based assay, as described herein. The results are shown below in Tables 1-4, above.
Numerous cellular assays were developed that were able to detect VIP responses absent of interference from non-specific vasopressin receptors using this CHO based system. VIPR2 is a Gs coupled receptor. Activation of VIPR2 by VIP leads to both an elevation in cAMP signaling and the recruitment of β-arrestin. A variety of combinations can be transiently transfect into these CHO cells for the assessment of cellular responses to VIP. For the BRET readout CHO cell lines expressing an YFP-Epac-RLuc8 (CAMYEL) BRET sensor were used to detect changes in cAMP. This construct includes Epac1, a guanine nucleotide exchange factor activated by direct binding of cAMP, fused to an enhanced YFP and RLuc8 allowing a change in BRET upon cAMP-induced conformational changes. The key for medium to high throughput screening assays is the use of stable cell lines allowing the continuous assaying of multiple compounds with the ability to generate large numbers of cells for rapid use. […]

hVIPR1 = target: T2, hVIPR1 (Homo sapiens, UniProt P32241); test: CAMYEL BRET cAMP assay in transient cell lines expressing hVIPR1; format: cell-based; conditions: transient cell lines expressing hVIPR1 and CAMYEL (FIG. 7)
T2 construct: expressed in transfected cells; host or cells: transient transfection with CAMYEL
T2 sequence (P32241 31-457): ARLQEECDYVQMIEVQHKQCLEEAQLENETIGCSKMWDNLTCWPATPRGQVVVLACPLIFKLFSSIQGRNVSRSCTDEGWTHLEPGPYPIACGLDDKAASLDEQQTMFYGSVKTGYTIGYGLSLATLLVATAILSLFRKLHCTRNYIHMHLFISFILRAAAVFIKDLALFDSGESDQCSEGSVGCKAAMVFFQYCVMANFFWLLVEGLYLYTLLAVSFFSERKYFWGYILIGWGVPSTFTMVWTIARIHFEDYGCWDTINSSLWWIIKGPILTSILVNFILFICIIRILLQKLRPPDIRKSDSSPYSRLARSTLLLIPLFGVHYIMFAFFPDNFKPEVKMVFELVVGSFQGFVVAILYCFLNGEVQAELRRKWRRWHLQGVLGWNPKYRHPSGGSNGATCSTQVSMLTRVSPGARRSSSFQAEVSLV
From the text: These assays are now being used for reliable and rapid quantification of VIPR2 responses to various antagonists under development for this receptor. This assay can also be used to evaluate agonists to VIPR2 and allosteric compounds, in addition to addresing the functional selectivity of different compounds, as it is possible to address multiple pathways effected by modulation of VIPR2 using this second messenger detection systems (cAMP and β-arrestin). This cellular assay for the detection of […] is applicable to multiple members of the […]. To this end lines were also developed expressing CAMYEL together with VIPR1 and PACAP1R (both the human and mouse forms) using transient transfection. This allows for the confirmation of specificity of novel antagonists to the VIPR2 receptor in addition to providing the ability to assay VIPR1 and PACAPR1 antagonists, agonists and allosteric modulators. […] These assays allow assays of VIPR2 antagonist, agonists and other compounds acting at […] in a specific, selective, rapid and medium to high throughput manner.

specificity for VIPR2 over hVIPR1 (hVIPR1): VIPR2 specificity
Structure (SMILES): CC(=O)c1ccc(S(=O)(=O)NC[C@@H](O)C[C@@H](Cc2ccccc2)C(=O)N[C@H]2c3ccccc3C[C@H]2O)cc1 [K]
VIPR2 inhibition in BRET-based assay, in words (VIPR2): significantly improved activity as an antagonist at VIPR2
